Test system: estrous cycle of the rat
Assay: Rat Estrous Cyclicity Model
Assay type: in vivo
Protocol: The Rat Estrous Cyclicity Model is described in detail in Hahn et al., Biological Assays Utilized to Characterize LHRH and its Analogs. In: LHRH and its Analogs, Contraception and Therapeutic Applications (Eds. Vickery B H, Nestor J J, and Hafez ESE), pp. 49-60. MTP Press Ltd, Lancaster, England, 1984, the contents of which are incorporated herein by reference. The model is used to assess the pharnacodynamic effect which an effective serum level of azaline B (at least 2.0 ng/ml), provided by the administration of a sustained release device of the invention, has on the estrous cycle of the rat. When the minimum effective concentration of azaline B is present in serum, the estrus phase of the estrous cycle of the rat is suppressed and the rat remains in the diestrus phase of the estrous cycle.
Microparticles containing an effective amount of azaline B were prepared according to the “Particulate Method,” described above, and the methods of Examples 1 and 3. The presence of azaline B activity was measured as the percent of a test group which remained in the diestrus phase of the estrous cycle. Animals were subcutaneously injected with equal amounts of azaline B either encapsulated in a microparticle or unencapsulated. […] The results are depicted in FIGS. 1 and 2 which show a plot of the percent of animals per treatment group in diestrus for each formulation evaluated versus time.

Ac-D-Nal′-D-Cpa^2-D-Pal^3-Ser^4-Aph^5(atz)-D-Aph^6(atz)-Leu^7-Ilys^8-Pro^9-D-Ala^10 [azaline B]
effective serum level of azaline B (minimum effective concentration suppressing estrus phase): at least 2.0 ng/ml
